Among the data in PubChem BioAssay AID206 (DTP/NCI, 2004) are T/C values, retold here.

Each structure is given as a SMILES string. Values joined by “and” are separate entries in the source; they are usually repeats but may differ in a detail not shown here. Identical values can stand only once. Inconclusive results are not listed.

This experiment has as its system nude mice, HT29 intrarenal xenograft, tumor weight T/C. Kind of experiment: NCI In Vivo Anticancer Drug Screen. Data for tumor model HT29;CX-1 Human Adenocarcinoma (MER+) (intrarenal inoculation) in NU/NU Swiss (nude) mice. The settings on record: endpoint: mean tumor weight change, higher = larger tumour. The procedure, abridged:
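Tumor-bearing mice received test compound or vehicle, and tumor size or survival was recorded. Values are the treated-group measurement divided by the vehicle-treated control measurement.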

The mark [1] stands for this setting: dose: 300.0 mg/kg/injection, schedule: Q04DX004 (sc), vehicle: Klucel (hydroxypropylcellulose) (HPC).
Where [2] appears, read: dose: 600.0 mg/kg/injection, schedule: Q04DX004 (sc), vehicle: Klucel (hydroxypropylcellulose) (HPC).
The mark [3] stands for this setting: dose: 800.0 mg/kg/injection, schedule: Q04DX004 (sc), vehicle: saline with Tween-80.
Where [4] appears, read: dose: 75.0 mg/kg/injection, schedule: Q04DX004 (sc), vehicle: saline with Tween-80.
[5] abbreviates: dose: 150.0 mg/kg/injection, schedule: Q04DX004 (sc), vehicle: saline with Tween-80.
Where [6] appears, read: dose: 300.0 mg/kg/injection, schedule: Q04DX004 (sc), vehicle: saline with Tween-80.
Where [7] appears, read: dose: 400.0 mg/kg/injection, schedule: Q04DX004 (sc), vehicle: Klucel (hydroxypropylcellulose) (HPC).
Setting [8] is: dose: 800.0 mg/kg/injection, schedule: Q04DX004 (sc), vehicle: Klucel (hydroxypropylcellulose) (HPC).
Where [9] appears, read: dose: 100.0 mg/kg/injection, schedule: Q01DX010 (sc), vehicle: Klucel (hydroxypropylcellulose) (HPC).

With `CC12CC(C(=O)O)C3(O)CC(C)(C1)CC(C)(C2)C3` (centres undefined) (tested in a mixture with another compound), the T/C by setting is: (dose: 150.0 mg/kg/injection, schedule: Q04DX004 (sc), vehicle: Klucel (hydroxypropylcellulose) (HPC)) 48 % of control; under setting [1], 54 % of control; under setting [2], 66 % of control; (dose: 1200.0 mg/kg/injection, schedule: Q04DX004 (sc), vehicle: Klucel (hydroxypropylcellulose) (HPC)) 110 % of control.
As for `CC[PH+](CC)CC[S-].CC[PH+](CC)CC[S-].[Au+].[Au+]`, the T/C (dose: 160.0 mg/kg/injection, schedule: Q04DX004 (sc), vehicle: Klucel (hydroxypropylcellulose) (HPC)) is 152 % of control.
In the case of `CCOC(=O)[C@]1(Br)CC[C@@]1(Br)C(=O)OCC`, the T/C was 105 % of control (dose: 400.0 mg/kg/injection, schedule: Q04DX004 (sc), vehicle: saline with Tween-80); 93 % of control under setting [3]; 43 % of control (dose: 1600.0 mg/kg/injection, schedule: Q04DX004 (sc), vehicle: saline with Tween-80).
On to `COc1cc2c(c(OC)c1OC)-c1ccc(OC)c(=O)cc1[C@@H](NC(C)=O)CC2`, for which, where the note is “dose: 0.5 mg/kg/injection, schedule: Q01DX010 (sc), vehicle: saline”, the T/C is 70 % of control.
Turning to `O=C1c2ccccc2C(=O)c2c(NCCNCCO)ccc(O)c21`, the T/C (dose: 25.0 mg/kg/injection, schedule: Q04DX004 (sc), vehicle: suspension in saline) is 74 % of control; the T/C (dose: 50.0 mg/kg/injection, schedule: Q04DX004 (sc), vehicle: suspension in saline) is 73 % of control; the T/C (dose: 100.0 mg/kg/injection, schedule: Q04DX004 (sc), vehicle: suspension in saline) was 111 % of control.
Consider `CN(C)C(=O)SC1=C(c2c(Cl)cccc2Cl)C(=O)c2ccccc21`, for which the T/C is, setting by setting: under setting [1], 95 % of control; under setting [2], 158 % of control.
Take `CCC(C)Nc1ccc(N)cc1` (centres undefined): the T/C is 64 % of control (dose: 2.25 mg/kg/injection, schedule: Q04DX004 (sc), vehicle: Klucel (hydroxypropylcellulose) (HPC)); 64 % of control (dose: 4.5 mg/kg/injection, schedule: Q04DX004 (sc), vehicle: Klucel (hydroxypropylcellulose) (HPC)); 101 % of control (dose: 9.0 mg/kg/injection, schedule: Q04DX004 (sc), vehicle: Klucel (hydroxypropylcellulose) (HPC)).
Consider `CC(=O)Oc1c[nH]c(=O)[nH]c1=O`, for which the T/C is, setting by setting: (dose: 100.0 mg/kg/injection, schedule: Q04DX004 (sc), vehicle: distilled water + Tween-80) 122 % of control; (dose: 200.0 mg/kg/injection, schedule: Q04DX004 (sc), vehicle: distilled water + Tween-80) 117 % of control; (dose: 400.0 mg/kg/injection, schedule: Q04DX004 (sc), vehicle: distilled water + Tween-80) 107 % of control; (dose: 800.0 mg/kg/injection, schedule: Q04DX004 (sc), vehicle: distilled water + Tween-80) 93 % of control.
For `CC1OC(=O)C(C(C)C)NC(=O)C(C(C)C)OC(=O)C(C(C)C)NC(=O)C(C)OC(=O)C(C(C)C)NC(=O)C(C(C)C)OC(=O)C(C(C)C)NC(=O)C(C)OC(=O)C(C(C)C)NC(=O)C(C(C)C)OC(=O)C(C(C)C)NC1=O` (centres undefined), the T/C (dose: 5.0 mg/kg/injection, schedule: Q01DX010 (sc), vehicle: saline with Tween-80) is 87 % of control and 103 % of control.
For `COc1cc(OC)c(OC)cc1/C=C\c1ccnc2ccccc12`, the T/C reads like this: (dose: 225.0 mg/kg/injection, schedule: Q04DX004 (sc), vehicle: Klucel (hydroxypropylcellulose) (HPC)) 79 % of control; (dose: 450.0 mg/kg/injection, schedule: Q04DX004 (sc), vehicle: Klucel (hydroxypropylcellulose) (HPC)) 110 % of control; (dose: 900.0 mg/kg/injection, schedule: Q04DX004 (sc), vehicle: Klucel (hydroxypropylcellulose) (HPC)) 83 % of control; (dose: 1800.0 mg/kg/injection, schedule: Q04DX004 (sc), vehicle: Klucel (hydroxypropylcellulose) (HPC)) 67 % of control.
In the case of `NC(=O)c1cn(C2OC(CO)C(O)C2O)c2ncnc(N)c12` (centres undefined), the T/C by setting is: (dose: 1.0 mg/kg/injection, schedule: Q01DX010 (sc), vehicle: saline) 115 % of control; (dose: 2.0 mg/kg/injection, schedule: Q01DX010 (sc), vehicle: saline) 94 % of control.
Regarding `CNc1cccnc1/C=N/NC(N)=S`, the T/C by setting is: under setting [4], 83 % of control; under setting [5], 110 % of control; under setting [6], 33 % of control; (dose: 600.0 mg/kg/injection, schedule: Q04DX004 (sc), vehicle: saline with Tween-80) 58 % of control.
On to `COC1C(O)CC(OC2CC(OC3CC(O[C@@H]4C(=O)c5c(cc6cc(OC7CC(OC8CC(O)C(O)C(C)O8)C(O)C(C)O7)c(C)c(O)c6c5O)C[C@H]4[C@H](OC)C(=O)[C@@H](O)[C@@H](C)O)OC(C)C3O)OC(C)C2O)OC1C` (some centres undefined), for which the T/C by setting is: (dose: 0.75 mg/kg/injection, schedule: Q01DX010 (sc), vehicle: saline) 27 % of control and 50 % of control; (dose: 1.5 mg/kg/injection, schedule: Q01DX010 (sc), vehicle: saline) 29 % of control and 41 % of control.
As to `S=C(Nc1ccc(Cl)c(Cl)c1)N1c2ccccc2-n2cccc2C1c1cccnc1` (centres undefined), the T/C reads like this: (dose: 200.0 mg/kg/injection, schedule: Q04DX004 (sc), vehicle: Klucel (hydroxypropylcellulose) (HPC)) 52 % of control; under setting [7], 114 % of control; under setting [8], 83 % of control.
On to `Cc1cc2c(C(C)C)c(O)c(O)c(C=O)c2c(O)c1-c1c(C)cc2c(C(C)C)c(O)c(O)c(C=O)c2c1O`, for which the T/C reads like this: (dose: 37.5 mg/kg/injection, schedule: Q04DX004 (sc), vehicle: saline with Tween-80) 100 % of control; under setting [4], 71 % of control; under setting [5], 64 % of control; under setting [6], 46 % of control.
In the case of `O=C1CC2(C(=O)N1CN1CCCCC1)c1ccccc1-c1ccccc12`, the T/C (dose: 100.0 mg/kg/injection, schedule: Q04DX004 (sc), vehicle: Klucel (hydroxypropylcellulose) (HPC)) is 43 % of control; the T/C under setting [7] was 69 % of control; the T/C under setting [8] is 70 % of control.
Regarding `COC1CC(C)C(OC)C2=CC(=O)C=C(NC(=O)/C(C)=C/C=C\C(C)C(OC(N)=O)/C(C)=C\C(C)C1OC)C2=O` (centres undefined), the T/C is, setting by setting: (dose: 12.5 mg/kg/injection, schedule: Q04DX004 (sc), vehicle: saline + alcohol) 99 % of control; (dose: 25.0 mg/kg/injection, schedule: Q04DX004 (sc), vehicle: saline + alcohol) 73 % of control; (dose: 50.0 mg/kg/injection, schedule: Q04DX004 (sc), vehicle: saline + alcohol) 53 % of control.
Take `N/C=N/O`: the T/C (dose: 400.0 mg/kg/injection, schedule: Q01DX010 (sc), vehicle: saline) is 111 % of control.
Take `ClCCCCCCCCCCc1ccccc1`: the T/C is, setting by setting: under setting [9], 23 % of control; (dose: 200.0 mg/kg/injection, schedule: Q01DX010 (sc), vehicle: Klucel (hydroxypropylcellulose) (HPC)) 36 % of control; (dose: 400.0 mg/kg/injection, schedule: Q01DX010 (sc), vehicle: Klucel (hydroxypropylcellulose) (HPC)) 57 % of control.
For the compound `CC1(O)CC23CC(O)C4(O)C(CC(O)C4(C)C)C(C)(O)C2CCC1C3O` (centres undefined), the T/C is 46 % of control (dose: 0.25 mg/kg/injection, schedule: Q04DX004 (sc), vehicle: Klucel (hydroxypropylcellulose) (HPC)); 37 % of control (dose: 0.5 mg/kg/injection, schedule: Q04DX004 (sc), vehicle: Klucel (hydroxypropylcellulose) (HPC)); 82 % of control (dose: 1.0 mg/kg/injection, schedule: Q04DX004 (sc), vehicle: Klucel (hydroxypropylcellulose) (HPC)).
In the case of `C/C(=C\c1ccccc1)[N+](=O)[O-]`, the T/C is 91 % of control (dose: 50.0 mg/kg/injection, schedule: Q01DX010 (sc), vehicle: Klucel (hydroxypropylcellulose) (HPC)) and 110 % of control under setting [9].
For the compound `NC(=O)c1ncn(C2OC(CO)C(O)C2O)n1` (centres undefined), the T/C (dose: 225.0 mg/kg/injection, schedule: Q04DX004 (sc), vehicle: saline) was 93 % of control; the T/C (dose: 450.0 mg/kg/injection, schedule: Q04DX004 (sc), vehicle: saline) was 75 % of control; the T/C (dose: 900.0 mg/kg/injection, schedule: Q04DX004 (sc), vehicle: saline) is 61 % of control.
For `COCCCNC1=C(C#N)C(=O)NC(c2cccc([N+](=O)[O-])c2)S1` (centres undefined), the T/C is 91 % of control (dose: 100.0 mg/kg/injection, schedule: Q04DX004 (sc), vehicle: saline with Tween-80); 165 % of control (dose: 200.0 mg/kg/injection, schedule: Q04DX004 (sc), vehicle: saline with Tween-80); 164 % of control under setting [3].
Take `COc1cc([C@@H]2c3cc4c(cc3[C@@H](OC3OC5COC(C)OC5C(O)C3O)[C@H]3COC(=O)[C@H]23)OCO4)cc(OC)c1O` (some centres undefined): the T/C is, setting by setting: (dose: 4.0 mg/kg/injection, schedule: Q01DX010 (sc), vehicle: saline) 71 % of control; (dose: 32.0 mg/kg/injection, schedule: Q01DX010 (sc), vehicle: saline) 62 % of control.
